Among the data in ChEMBL document CHEMBL2151011, “Substituted pyridines as sodium channel blockers: patent highlight” (ACS Med Chem Lett, 2012) are Ki and IC50 values, retold here.

Assay [1] concerns the target T1, Sodium channel protein type 9 subunit alpha (Homo sapiens, UniProt Q15858). Put plainly: Blockade of Nav1.7 by electrophysiological patch clamp assay. In general terms: The patch-clamp technique gives a direct electrical read-out from membranes.
Assay [2] concerns the target T1, Sodium channel protein type 9 subunit alpha. In words: Blockade of Nav1.7 by FLIPR TETRA sodium dye assay in presence of KCl salt.

The structures appear in SMILES notation.

T1 sequence (Q15858 whole entry): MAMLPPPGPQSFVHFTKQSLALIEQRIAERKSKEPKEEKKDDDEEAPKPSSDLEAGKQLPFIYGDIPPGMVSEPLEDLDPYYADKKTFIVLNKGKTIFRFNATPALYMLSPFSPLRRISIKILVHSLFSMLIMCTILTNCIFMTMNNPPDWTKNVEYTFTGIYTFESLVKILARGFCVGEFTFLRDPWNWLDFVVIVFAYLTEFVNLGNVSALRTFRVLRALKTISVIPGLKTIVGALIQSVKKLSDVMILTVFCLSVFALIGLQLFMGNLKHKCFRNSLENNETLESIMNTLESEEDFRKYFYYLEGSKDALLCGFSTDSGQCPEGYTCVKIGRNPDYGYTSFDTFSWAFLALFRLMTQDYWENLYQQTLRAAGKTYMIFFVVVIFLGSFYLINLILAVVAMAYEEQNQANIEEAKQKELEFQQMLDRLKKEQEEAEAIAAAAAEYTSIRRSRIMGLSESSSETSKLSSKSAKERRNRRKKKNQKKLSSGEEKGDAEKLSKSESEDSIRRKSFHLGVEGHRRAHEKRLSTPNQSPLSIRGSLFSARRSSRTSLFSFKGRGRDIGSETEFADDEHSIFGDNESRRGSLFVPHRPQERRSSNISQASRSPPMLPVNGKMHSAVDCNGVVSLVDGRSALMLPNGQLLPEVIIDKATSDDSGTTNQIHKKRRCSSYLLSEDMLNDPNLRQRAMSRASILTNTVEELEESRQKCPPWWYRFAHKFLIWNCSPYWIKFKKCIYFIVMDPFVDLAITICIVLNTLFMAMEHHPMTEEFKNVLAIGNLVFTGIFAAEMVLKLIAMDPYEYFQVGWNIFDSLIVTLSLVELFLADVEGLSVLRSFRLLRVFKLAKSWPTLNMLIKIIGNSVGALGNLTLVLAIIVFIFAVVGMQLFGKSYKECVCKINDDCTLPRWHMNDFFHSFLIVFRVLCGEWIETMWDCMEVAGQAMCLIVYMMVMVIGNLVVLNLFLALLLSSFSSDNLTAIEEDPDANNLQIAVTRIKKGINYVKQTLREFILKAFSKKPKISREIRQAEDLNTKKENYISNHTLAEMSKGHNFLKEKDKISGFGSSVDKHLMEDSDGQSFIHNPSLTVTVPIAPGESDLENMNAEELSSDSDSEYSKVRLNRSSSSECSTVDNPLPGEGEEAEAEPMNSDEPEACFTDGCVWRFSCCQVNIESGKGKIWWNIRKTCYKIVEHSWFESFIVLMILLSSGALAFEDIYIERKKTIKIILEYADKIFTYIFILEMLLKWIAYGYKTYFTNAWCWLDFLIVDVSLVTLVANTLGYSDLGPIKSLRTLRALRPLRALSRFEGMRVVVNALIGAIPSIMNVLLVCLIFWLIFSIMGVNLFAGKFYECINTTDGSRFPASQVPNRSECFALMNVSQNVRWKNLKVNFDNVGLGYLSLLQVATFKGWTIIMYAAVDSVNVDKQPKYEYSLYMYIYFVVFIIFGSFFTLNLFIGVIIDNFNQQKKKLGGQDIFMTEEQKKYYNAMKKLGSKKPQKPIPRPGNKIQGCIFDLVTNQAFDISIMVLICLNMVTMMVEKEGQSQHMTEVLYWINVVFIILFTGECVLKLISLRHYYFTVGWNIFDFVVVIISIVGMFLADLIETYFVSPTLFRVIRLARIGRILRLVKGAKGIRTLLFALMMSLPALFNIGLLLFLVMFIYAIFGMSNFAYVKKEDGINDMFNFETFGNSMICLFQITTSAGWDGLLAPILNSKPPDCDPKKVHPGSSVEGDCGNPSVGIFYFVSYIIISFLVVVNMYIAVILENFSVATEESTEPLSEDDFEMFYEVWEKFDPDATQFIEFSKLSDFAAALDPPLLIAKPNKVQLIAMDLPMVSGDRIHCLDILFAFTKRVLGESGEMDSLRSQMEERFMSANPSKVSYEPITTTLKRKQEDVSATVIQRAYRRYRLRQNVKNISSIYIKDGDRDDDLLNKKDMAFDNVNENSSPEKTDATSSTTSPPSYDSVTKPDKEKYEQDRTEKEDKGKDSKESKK

By Ki is commonly meant a measure of affinity in units of concentration, obtained from inhibition or displacement. The IC50 is the concentration at which inhibition is half-maximal. `O=C(N[C@@H](CO)C(=O)Nc1cccc(-c2ccc(Oc3ccc(F)cc3)cc2)n1)c1ccccn1` displayed a Ki in assay [1] of 195 nM. Besides, the IC50 in assay [2] worked out at 140 nM.
